Assay results from patent US11584775B2, “C4-modified oleanolic acid derivatives for inhibition of IL-17 and other uses” (REATA PHARMACEUTICALS, INC., priority 2015, dated 2023).

Experiments:
[1] = test system: IFNγ-induced Nitric Oxide production; assay: Nitric oxide production assay in RAW 264.7 mouse macrophages; format: cell-based; settings: RAW264.7, suppression of IFNγ-induced NO production normalized to cell viability (WST-1), RAW 264.7, 24 hours IFNγ
Procedure, shortened: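 Cells pre-treated 2 h with compound (0.4-200 nM or 2-1000 nM) in RPMI 1640 + 0.5% FBS, then stimulated with recombinant mouse IFNγ for 24 h at 37 °C. Nitrite measured by Griess reagent, viability by WST-1; IC50 from NO suppression normalized to viability and to DMSO/IFNγ controls.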

hIL17 = assay: IL-17 release from differentiated primary human T-cells (IL-17A HTRF assay); format: cell-based; settings: inhibition of IL-17A levels; primary human CD4+ T cells differentiated into Th17 cells, 46-hour incubation
Procedure, shortened: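 Cryopreserved primary human CD4+ T cells were activated with anti-CD3/CD28 beads and driven to Th17 with TGF-β, IL-6, IL-23 and IL-1β in the presence of compound (2-500 nM or 4-1000 nM) for 46 h at 37° C. Supernatant IL-17A was quantified by HTRF against a standard curve and normalized to DMSO. IC50s came from variable-slope fits, with viability read by CyQuant.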

NRF2 = assay: AREc32 luciferase reporter assay; format: cell-based, human; settings: EC2×: concentration required to increase GST ARE Luciferase reporter activity by 2-fold; AREc32 cells, 19 hours
Procedure, shortened: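 AREc32 cells (MCF-7 stably carrying eight rat GSTA2 ARE copies driving firefly luciferase) treated 19 h with compound (0.4–200 nM or 2–1000 nM), triplicate. Luminescence normalized to DMSO as fold-induction; variable-slope fit capped at 50-fold; EC2× = concentration giving 2-fold induction.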

human RORγ = target: T1, human RORγ (Homo sapiens, UniProt P51449); assay: RORγ assay (GAL4-RORγ hybrid luciferase reporter, inverse-agonist activity); format: cell-based; settings: GAL4-RORγ hybrid reporter cells, 23 hours
T1 sequence (P51449 269-508 limits assumed): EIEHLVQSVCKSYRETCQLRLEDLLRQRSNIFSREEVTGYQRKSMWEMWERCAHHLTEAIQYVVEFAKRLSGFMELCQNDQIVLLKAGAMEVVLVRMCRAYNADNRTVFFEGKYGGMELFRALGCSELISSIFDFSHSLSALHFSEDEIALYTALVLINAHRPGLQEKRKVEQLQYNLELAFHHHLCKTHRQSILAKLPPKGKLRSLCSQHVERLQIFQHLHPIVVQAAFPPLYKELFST
Procedure, shortened: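 Human cell line expressing GAL4-DBD/RORγ hybrid with UAS-driven luciferase, treated in triplicate with compound (0.4–200 nM or 2–1000 nM) for 23 h at 37 °C. Luminescence normalized to DMSO; viability measured in parallel by multiplex assay. IC50 for RORγ and viability by variable-slope nonlinear regression.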

SMILES | IC50 (hIL17) [nM] | IC50 (human RORγ) [nM] | IC50 [1] [nM] | EC2x: concentration giving 2-fold induction of ARE luciferase reporter (NRF2) [nM]
COC(=O)[C@]12CCC(C)(C)C[C@H]1[C@H]1C(=O)C=C3[C@@]4(C)C=C(C#N)C(=O)[C@@](C)(C(=O)OC)[C@@H]4CC[C@@]3(C)[C@]1(C)CC2 [Compound T2, dimethyl (4S,4aR,6aS,6bR,8aS,12aS,12bR,14bS)-2-cyano-4,6a,6b,11,11,14b-hexamethyl-3,13-dioxo-4,4a,5,6,6a,6b,7,8,9,10,11,12,12a,12b,13,14b-hexadecahydropicene-4,8a(3H)-dicarboxylate] | 19 | 216 | 92 | 204
COC(=O)[C@]12CCC(C)(C)C[C@H]1[C@H]1C(=O)C=C3[C@@]4(C)C=C(C#N)C(=O)[C@@](C)(CO)[C@@H]4CC[C@@]3(C)[C@]1(C)CC2 [Comparison Compound #300, reference compound] | 18 | 152 | 7.4 | 34
COC[C@]1(C)C(=O)C(C#N)=C[C@]2(C)C3=CC(=O)[C@@H]4[C@@H]5CC(C)(C)CC[C@]5(C(=O)OC)CC[C@@]4(C)[C@]3(C)CC[C@H]21 [Compound T20] | 21 | 223 | 15.6 | 175
Cc1noc([C@]23CCC(C)(C)C[C@H]2[C@H]2C(=O)C=C4[C@@]5(C)C=C(C#N)C(=O)C(C)(C)[C@@H]5CC[C@@]4(C)[C@]2(C)CC3)n1 [Comparison Compound #9, reference compound] | 18 | 176 | 1.2 | 12
COC(=O)[C@]12CCC(C)(C)C[C@H]1[C@H]1C(=O)C=C3[C@@]4(C)C=C(C#N)C(=O)[C@@](C)(NC(=O)OC(C)(C)C)[C@@H]4CC[C@@]3(C)[C@]1(C)CC2 [Compound T10] | 204 | 1080 | 414 | >1000
COCC[C@]1(C)C(=O)C(C#N)=C[C@]2(C)C3=CC(=O)[C@@H]4[C@@H]5CC(C)(C)CC[C@]5(C(=O)OC)CC[C@@]4(C)[C@]3(C)CC[C@H]21 [Compound T17, methyl (4aS,6aR,6bS,8aR,9S,12aS,14aR,14bS)-11-cyano-9-(2-methoxyethyl)-2,2,6a,6b,9,12a-hexamethyl-10,14-dioxo-1,3,4,5,6,6a,6b,7,8,8a,9,10,12a,14,14a,14b-hexadecahydropicene-4a(2H)-carboxylate] | 30 | 250 | 19.5 | 64
COC(=O)[C@]12CCC(C)(C)C[C@H]1[C@H]1C(=O)C=C3[C@@]4(C)C=C(C#N)C(=O)[C@@H](C)[C@@H]4CC[C@@]3(C)[C@]1(C)CC2 [Comparison Compound #1, reference compound] | 25 | 127 | 1.2 | 11
CC1(C)CC[C@@]23CC[C@@]4(C)[C@]5(C)CC[C@H]6[C@](C)(O)C(=O)C(C#N)=C[C@]6(C)C5=CC(=O)[C@]4(OC2=O)[C@@H]3C1 [Compound T33, (4S,4aR,6aR,6bS,8aS,12aR,12bS,14bS)-4-hydroxy-4,6a,6b, 11,11,14b-hexamethyl-3,13,16-trioxo-4,4a,5,6,6a,6b,7,8,10,11,12,12a,13,14b-tetradecahydro-3H,9H-12b,8a-(epoxymethano)picene-2-carbonitrile] | 25 | 220 | 79.9 | 120
COC(=O)N[C@]12CCC(C)(C)C[C@H]1[C@H]1C(=O)C=C3[C@@]4(C)C=C(C#N)C(=O)C(C)(C)[C@@H]4CC[C@@]3(C)[C@]1(C)CC2 [Comparison Compound #7, reference compound] | 27 | 371 | 2.4 | 20

More lines, main results first:

IC50 (hIL17) [nM] | IC50 (human RORγ) [nM] | SMILES | IC50 [1] [nM] | EC2x: concentration giving 2-fold induction of ARE luciferase reporter (NRF2) [nM]
17 | 165 | Cc1noc([C@]23CCC(C)(C)C[C@H]2[C@H]2C(=O)C=C4[C@@]5(C)C=C(C#N)C(=O)[C@@](C)(CO)[C@@H]5CC[C@@]4(C)[C@]2(C)CC3)n1 [Compound T45, (4R,4aR,6aS,6bR,8aS,12aS,12bR,14bS)-4-(hydroxymethyl)-4,6a,6b, 11,11,14b-hexamethyl-8a-(3-methyl-1,2,4-oxadiazol-5-yl)-3,13-dioxo-3,4,4a,5,6,6a,6b,7,8,8a,9,10,11,12,12a,12b,13,14b-octadecahydropicene-2-carbonitrile] | 6.9 | 47
11 | 1040 | CC1(C)CC[C@@]23CC[C@@]4(C)[C@]5(C)CC[C@@H]6[C@@](C)(C5=CC(=O)[C@]4(OC2=O)[C@@H]3C1)[C@H]1O[C@@]1(C#N)C(=O)[C@@]6(C)O [Compound T50, (1aR,3S,3aR,5aR,5bS,7aS,11aR,11bS,13bS,13cR)-3-hydroxy-3,5a,5b,10,10,13b-hexamethyl-2,12,15-trioxo-3,3a,4,5,5a,6,7,9,10,11,11a,12,13b,13c-tetradecahydro-2H, 8H-11b,7a-(epoxymethano)piceno[1,2-b]oxirene-1a(5bH)-carbonitrile] | 65.4 | 162
37 | 698 | COC(=O)N[C@]12CCC(C)(C)C[C@H]1[C@H]1C(=O)C=C3[C@@]4(C)C=C(C#N)C(=O)[C@@](C)(CO)[C@@H]4CC[C@@]3(C)[C@]1(C)CC2 [Compound T40, methyl ((4aS,6aR,6bS,8aR,9R,12aS,14aR,14bS)-11-cyano-9-(hydroxymethyl)-2,2,6a,6b,9,12a-hexamethyl-10,14-dioxo-1,3,4,5,6,6a,6b,7,8,8a,9,10,12a,14,14a,14b-hexadecahydropicen-4a(2H)-yl)carbamate] | 24.6 | 130
68 | 413 | CNC(=O)[C@]1(C)C(=O)C(C#N)=C[C@]2(C)C3=CC(=O)[C@]45OC(=O)[C@@]6(CCC(C)(C)C[C@H]64)CC[C@@]5(C)[C@]3(C)CC[C@@H]12 [Compound T35, (4S,4aR,6aR,6bS,8aS,12aR,12bS,14bS)-2-cyano-N,4,6a,6b, 11,11,14b-heptamethyl-3,13,16-trioxo-4,4a,5,6,6a,6b,7,8,10,11,12,12a,13,14b-tetradecahydro-3H,9H-12b,8a-(epoxymethano)picene-4-carboxamide] | > 1000 | >1000
336 | 1350 | CC1(C)CC[C@@]23CC[C@@]4(C)[C@]5(C)CC[C@H]6[C@](C)(C(N)=O)C(=O)C(C#N)=C[C@]6(C)C5=CC(=O)[C@]4(OC2=O)[C@@H]3C1 [Compound T37, (4S,4aR,6aR,6bS,8aS,12aR,12bS,14bS)-2-cyano-4,6a,6b, 11,11,14b-hexamethyl-3,13,16-trioxo-4,4a,5,6,6a,6b,7,8,10,11,12,12a,13,14b-tetradecahydro-3H,9H-12b,8a-(epoxymethano)picene-4-carboxamide] | > 1000 | >1000
